Reference: publication PMC7494652 (Bioorganic & medicinal chemistry letters, 2020)
Where two headings read alike, the source gives them in different places.

Legend:
[1] = Solubility in sodium phosphate buffer; format: physicochemical
[2] = target: T1, human sEH (Homo sapiens, UniProt P34913); test: Inhibition of human sEH, kinetic fluorescent assay
T1 sequence (P34913 1-555): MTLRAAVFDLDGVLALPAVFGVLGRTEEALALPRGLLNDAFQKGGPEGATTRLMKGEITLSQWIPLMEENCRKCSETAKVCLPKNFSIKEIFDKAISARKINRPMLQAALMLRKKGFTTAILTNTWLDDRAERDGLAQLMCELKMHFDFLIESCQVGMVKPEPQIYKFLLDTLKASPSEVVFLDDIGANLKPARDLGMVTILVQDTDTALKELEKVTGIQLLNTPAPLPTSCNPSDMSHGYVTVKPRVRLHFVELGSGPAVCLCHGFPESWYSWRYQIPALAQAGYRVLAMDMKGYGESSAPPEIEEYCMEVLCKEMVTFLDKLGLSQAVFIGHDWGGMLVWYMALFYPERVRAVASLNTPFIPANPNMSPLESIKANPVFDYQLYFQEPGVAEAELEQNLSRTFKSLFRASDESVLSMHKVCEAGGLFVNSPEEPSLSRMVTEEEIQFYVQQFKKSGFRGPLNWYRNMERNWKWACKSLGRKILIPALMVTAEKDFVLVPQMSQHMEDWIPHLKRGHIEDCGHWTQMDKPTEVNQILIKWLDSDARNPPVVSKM

[3] = cited from earlier work

## CC1(C)[C@H]2CC[C@]1(C)C(NC(=O)Nc1ccccc1F)C2 (mixture of isomers) [(S)-2b]
[1]; pH 7.4, aqueous buffer
  solubility: 225 ± 25 µM

## O=C(NC1CC2C=CC1C2)N[C@H]1CC[C@H](Oc2ccc(C(=O)O)cc2)CC1 (some centres unmarked) [1a]
[1]; sodium phosphate buffer
  Fold more soluble than t-AUCB: 2 fold
  Solubility compared with t-TUCB: significantly more soluble

## O=C(NCCCCCCCCNC(=O)NCc1ccco1)NCc1ccco1 [5i]
[2]
  IC50: 214 nM

## O=C(Nc1ccc(OC(F)(F)F)cc1)N[C@H]1CC[C@H](Oc2ccc(C(=O)O)cc2)CC1 [t-TUCB]
[3]
  solubility: 5[19] μM
